Assay results from patent US20160136193A1, “TREATMENT OF SYMPTOMS ASSOCIATED WITH BACTERIAL VAGINOSIS” (IDH Holding ApS, priority 2003, published 2016).

What was measured:
[1] = tested on: symptoms associated with bacterial vaginosis; test: Treatment of a person with recurrent vaginal fishy-smelling secretions (Example 9); assay type: in vivo, human; details: after two 7-day treatments
Description: A person had suffered from discomfort and vaginal secretions of fishy smell recurring after two 7-day treatments with metronidazole. The vaginal pH was approximately 5.3, varying between 5.0 and 5.5.
A lactose suspension (1-3 ml) as prepared in Example 8 was instilled into the vagina twice daily. After approximately 24 hours the pH lowered to 4.7 and the fishy odor disappeared. Continuous application once a day further lowered the pH down to approximately 4.4. The treatment was continued for 4 days.
After 4 days symptoms such as the fishy odor recurred; however, the symptoms disappeared after one day of the treatment described above.

Bacterial Vaginosis = details: cited from earlier work

## Cc1ncc([N+](=O)[O-])n1CCO [Metronidazole]
[1]
  discomfort and vaginal secretions of fishy smell after treatment: recurring
Bacterial Vaginosis; 7-day treatment, after 1 month
  cure rate: 80-90%
Bacterial Vaginosis; 7-day treatment
  side effects: nausea, abdominal cramps and a metallic taste

## Lactobacillus acidophilus
Bacterial Vaginosis; alternative measures
  benefits in studies: have not demonstrated benefits

## CCC[C@@H]1C[C@@H](C(=O)N[C@@H]([C@H]2O[C@H](SC)[C@H](O)[C@@H](O)[C@H]2O)[C@H](C)Cl)N(C)C1 [Clindamycin]
Bacterial Vaginosis; 7-day treatment
  side effects: less, though diarrhea is possible
